Data on 27 molecules can be found in ChEMBL document CHEMBL5032503 (J Med Chem, 2021).

Usually ΔTm stands for the shift of the melting midpoint relative to a reference. A word on the EC50: it is the concentration giving half of the maximal effect. What is called Kd is a measure of binding affinity in units of concentration. Low readings indicate a tighter complex, high ones a looser complex.

Each structure is given as a SMILES string. The source made the active and inactive calls. No cut-off for these calls is given here.

Test [1] deals with T1, Nuclear receptor subfamily 2 group E member 1 (Homo sapiens, UniProt Q9Y466). Briefly: Stabilization of human recombinant TLX LBD assessed as change in melting temperature at 500 uM by DSF assay. Background: DSF heats the sample and reads unfolding from a dye or from intrinsic fluorescence.
Test [2] has as its target T1, Nuclear receptor subfamily 2 group E member 1. Description: Inverse agonist activity at full length TLX activating element expressed in human HEK293T cells coexpressing human full-length TLX/Gal4-VP 16 assessed as fold […] in reporter activity at 100 uM by luciferase reporter gene assay relative to control. Type of test: cell-based. To be noted: filed as inverse agonist. In general terms: Reporter assays use an easily measured gene product as a stand-in for the process of interest.

Test [3] has the same target. Briefly: Agonist activity at in human TLX LBD expressed in human HEK293T cells coexpressing Gal4-VP 16 assessed as fold […] in reporter activity at 100 uM measured after 14 hrs by luciferase reporter gene assay relative to control. It is filed as cell-based. To be noted: filed as agonist.
For test [4] the target is unchanged. Description: Agonist activity at in human TLX LBD expressed in human HEK293T cells coexpressing Gal4-VP 16 assessed as increase in reporter activity measured after 14 hrs by luciferase reporter gene assay relative to control. Type of test: cell-based.
Test [5] has the same target. Description: Agonist activity at in human TLX LBD expressed in human HEK293T cells coexpressing Gal4-VP 16 assessed as remaining activity measured after 14 hrs by luciferase reporter gene assay relative to control. Type of test: cell-based. To be noted: filed as agonist.
The target is the same in test [6]. Description: Agonist activity at full length TLX activating element expressed in human HEK293T cells coexpressing human full-length TLX/Gal4-VP 16 assessed as fold increase in reporter activity at 100 uM by luciferase reporter gene assay relative to control. Type of test: cell-based. Particulars: filed as agonist.
The target is the same in test [7]. Description: Agonist activity at TAE expressed in human HEK293T cells coexpressing human full-length TLX/Gal4-VP 16 assessed as renilla luciferase reporter activity incubated for 14 hrs by Dual-glo luciferase.
For test [8], the system named is T98G. Briefly: Cytotoxicity against human T98G cells assessed as cell viability by WST-1 assay. It is filed as functional, cell-based.
The subject of test [9] is T98G. Description: Induction of apoptosis in human T98G cells assessed as viable cells at 100 nM measured after 72 hrs by propidium iodide staining based flow cytometry. It is filed as functional, cell-based.
Test [10] deals with T98G. Briefly: Effect on TLX regulated gene expression in human T98G cells assessed as induction of SIRT1 mRNA expression at 50 uM after 8 hrs by qRT-PCR analysis. It is filed as functional, cell-based.
Test [11] has as its system T98G. Description: Effect on TLX regulated gene expression in human T98G cells assessed as decrease in TET3 mRNA expression at 50 uM after 8 hrs by qRT-PCR analysis. It is filed as functional, cell-based. A general note: Quantitative PCR measures a nucleic acid by following its amplification.
The subject of test [12] is T98G. Description: Effect on TLX regulated gene expression in human T98G cells assessed as induction of mRNA expression at 50 uM after 8 hrs by qRT-PCR analysis. It is filed as functional, cell-based.
Test [13] concerns T98G. Description: Inhibition of cell migration in human T98G cells at 75 uM incubated for 24 hrs by crystal violet staining based by Boyden chamber method. It is filed as functional.
The test system of test [14] is T98G. Description: Effect on TLX regulated gene expression in human T98G cells assessed as decrease in PTEN mRNA expression at 50 uM after 8 hrs by qRT-PCR analysis. Type of test: functional, cell-based.
In test [15] the target is T1, Nuclear receptor subfamily 2 group E member 1. Description: Inverse agonist activity at in human TLX LBD expressed in human HEK293T cells coexpressing Gal4-VP 16 assessed as fold increase in reporter activity at 100 uM measured after 14 hrs by luciferase reporter gene assay relative to control. Type of test: cell-based. Particulars: filed as inverse agonist.
The target is the same in test [16]. Briefly: Agonist activity at human TLX LBD expressed in human HEK293T cells coexpressing Gal4-VP 16 incubated for 14 hrs at 100 uM. It is filed as cell-based.
Test [17] shares this target. Description: Agonist activity at full length TLX activating element expressed in human HEK293T cells coexpressing human full-length TLX/Gal4-VP 16 assessed as decrease in reporter activity at 100 uM by luciferase reporter gene assay relative to control.
A short description of test [18]: Effect on Gal4-VP16 plasmid transfected in human HEK293T cells assessed as reporter activity incubated for 14 hrs by luciferase assay. Type of test: functional, HEK-293T.
Test [19] has as its target T1, Nuclear receptor subfamily 2 group E member 1.
Description: Binding affinity to TLX LBD expressed in His6-tagged Escherichia coli Rosetta assessed as binding constant measured after 300 sec at 200 mM by isothermal titration calorimetry
Test [20] has the same target. Description: Agonist activity at human TLX LBD expressed in human HEK293T cells coexpressing Gal4-VP 16 incubated for 14 hrs at 300 uM. It is filed as cell-based.

T1 sequence (Q9Y466 whole entry, the tested form may be a part): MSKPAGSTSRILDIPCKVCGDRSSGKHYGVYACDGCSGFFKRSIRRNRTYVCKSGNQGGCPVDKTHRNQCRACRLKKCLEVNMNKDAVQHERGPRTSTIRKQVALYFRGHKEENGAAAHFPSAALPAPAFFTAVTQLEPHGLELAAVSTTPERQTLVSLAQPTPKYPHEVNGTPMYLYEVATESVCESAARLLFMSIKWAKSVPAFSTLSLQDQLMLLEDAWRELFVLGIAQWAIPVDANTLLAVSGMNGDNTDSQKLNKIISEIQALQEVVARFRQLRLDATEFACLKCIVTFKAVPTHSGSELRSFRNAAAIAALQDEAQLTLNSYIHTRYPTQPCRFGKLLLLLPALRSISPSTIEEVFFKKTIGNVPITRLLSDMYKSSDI

For the molecule `CNC(=O)c1cc(Cl)c(N)cc1OC`, the ΔTm in test [1] was -0.3 °C. In addition, the fold change (FC) in [2] came to 1.05; in test [3], 0.46.
For `CC(C)NC[C@H](O)COc1cccc2ccccc12` [LEVOPROPRANOLOL], the concentration for a half-maximal effect (EC50) in test [4] (read-out: EC50) was determined as 72 µM. Also, the fold change (FC) in test [5] stood at 0.25.
In the case of `O=C(O)CCCc1ccc(-c2ccccc2)cc1`, the ΔTm in test [1] was -1.4 °C. The fold change (FC) in test [3] was 0.34; in test [6], 0.41.
For `CC(C)OCC(O)COc1cccc2ccccc12` (centres undefined), in [4] (read-out: EC50), the EC50 worked out at 83 µM. The fold change (FC) in [5] was 0.29.
As to `Nc1cnc2ccccc2n1`, in [1] (filed as modulator), the thermal shift (ΔTm) worked out at 1.2 °C. In addition, the fold change (FC) in test [2] was 1.8; in test [3] it was 2.9.
For `c1ccc2c3c([nH]c2c1)CNCC3` [TRYPTOLINE], the EC50 in [4] (read-out: EC50) was 74 µM; in test [7], above 100 µM. The ΔTm in test [1] (filed as agonist) worked out at 1.2 °C. Besides, the fold change (FC) was 2.2 in test [2], 0.47 in test [3], 2.15 in [6] and 0.4 in test [5].
`CC(C)NCC(O)COc1ccc(CC(N)=O)cc1` (racemic) [ATENOLOL]: in the test with T98G [8], the outcome was Active. Besides, the 50% effective concentration (EC50) result in test [4] (hek293t) is listed as “Not Active”. The result with T98G [9], with T98G [10], in the test on T98G [11], in the test on T98G [12] and in the test on T98G [14] was inactive. Also, in the test with T98G [13], the “cell migration inhibition (active/not active call)” value was “inactive”.
Take `CN1CC(=O)N2[C@H](c3ccc4c(c3)OCO4)c3[nH]c4ccccc4c3C[C@@H]2C1=O`: in test [4] (read-out: EC50), the concentration giving a half-maximal response (EC50) turned out to be 5 µM. Besides, the fold change (FC) in test [5] came to 0.62.
With `Cn1c(=O)[nH]c2[nH]cnc2c1=O`, in test [1] (filed as modulator), the shift in melting temperature (ΔTm) was found to be 1.1 °C. Also, the fold change (FC) came out at 1.47 in [2] and 3.3 in test [15].
On to `CC(C)N(C)CC(O)COc1cccc2ccccc12` (centres undefined), for which the EC50 in test [4] (read-out: EC50) is above 100 µM.
`OC(COc1cccc2ccccc12)CN1CCCCC1` (centres undefined): the result in [16] was inactive.
On to `COC(CNC(C)C)COc1cccc2ccccc12` (centres undefined), for which the EC50 in test [4] (read-out: EC50) came to 52 µM. Also, the fold change (FC) in test [5] was found to be 0.28.
Turning to `CC(C)NCCCOc1cccc2ccccc12`, the EC50 in test [4] (read-out: EC50) came to 50 µM. Further, the fold change (FC) in test [5] was 0.42.
Regarding `O=C1Nc2ccccc2Nc2ccccc21`, the ΔTm in test [1] came to 0.6 °C. The fold change (FC) in [2] turned out to be 1.12; in test [3], 0.47.
For the molecule `CCCNCC(O)COc1ccccc1C(=O)CCc1ccccc1` (racemic) [PROPAFENONE], the EC50 in [4] (read-out: EC50) is 47 µM. Also, the fold change (FC) in [5] came out at 0.2.
With `CC(C)NC[C@@H](O)COc1cccc2ccccc12` [DEXPROPRANOLOL], the EC50 in [4] (read-out: EC50) is 40 µM. In addition, the fold change (FC) in test [5] worked out at 0.4.
`O=c1[nH]nc(Cc2ccccc2)c2ccccc12`: in test [1], the ΔTm was -0.5 °C. Besides, the fold change (FC) in test [3] turned out to be 0.17; in [6], 0.57.
On to `CC(C)NCC(O)COc1cccc2ccccc12` (racemic) [PROPRANOLOL], for which the values for the concentration for a half-maximal effect (EC50) in test [17], in test [4] (read-out: EC50) and in test [7] were 32 µM, 32 µM and 37 µM, respectively. In addition, the outcome with T98G [8], with T98G [10], in the test on T98G [11], in the test on T98G [12] and in the test with T98G [14] was Active. Moreover, the result with T98G [9] was inactive. The Activity in test [18] turned out to be 8%. Also, the “cell migration inhibition (active/not active call)” value in the test with T98G [13] is “Active”. This molecule also showed a Kd in test [19] of 0.5 µM. Further, the fold change (FC) in test [5] was 0.08.
For the molecule `Cc1cn(-c2cc(N)cc(C(F)(F)F)c2)cn1`, the ΔTm in [1] was -3.2 °C. The fold change (FC) in [3] is 0.44; in test [6], 0.65.
In the case of `NC1CCc2[nH]c3ccccc3c2C1` (centres undefined), the results for the half-maximal effective concentration (EC50) in [4] (read-out: EC50) and in test [7] were 67 µM and above 100 µM, respectively. Moreover, the ΔTm in [1] (filed as agonist) is 2.4 °C. Also, the fold change (FC) was 2.1 in test [2], 0.45 in [3], 1.98 in [6] and 0.5 in [5].
In the case of `Clc1ccc(C(c2ccccc2)N2CCNCC2)cc1` (centres undefined), the thermal shift (ΔTm) in test [1] is -2.3 °C. Besides, the fold change (FC) in [3] is 0.37; in [6], 0.57.
Consider `CC(=O)N1CCN(c2ccc(O)cc2)CC1`, for which, in [1], the thermal shift (ΔTm) was 0.8 °C. Further, the figures for the fold change (FC) in test [3] and in [6] were 0.5 and 0.86, respectively.
In the case of `CCCCOc1cc(C(=O)NC)c2ccccc2n1`, in [1], the shift in melting temperature (ΔTm) was determined as 1.1 °C. Moreover, the fold change (FC) in [3] is 32; in test [6] it was 0.68.
For `NCC(O)COc1cccc2ccccc12` (centres undefined), the values for the EC50 in test [4] (read-out: EC50) and in test [7] were 19.4 µM and 43 µM, respectively. Also, in [1] (filed as agonist), the ΔTm was found to be 1.5 °C. The fold change (FC) was 2.3 in test [2], 0.27 in test [3] and 0.07 in test [5].
On to `COc1ccc2[nH]c(SC)nc2c1`, for which the ΔTm in test [1] (filed as modulator) stood at 0.5 °C. Further, the fold change (FC) in [2] was 1.33; in test [15], 2.7; in [3] it was 2.7.
As for `CC(C)NCC(O)COc1ccnc2ccccc12` (centres undefined), in the test on T98G [8], the outcome was Active. The result (with T98G [9]; in test [20]) was inactive. In the test with T98G [13], the “cell migration inhibition (active/not active call)” value was “inactive”.
In the case of `CC(C)NCC(O)c1ccc(NS(C)(=O)=O)cc1` (racemic) [SOTALOL], the outcome with T98G [8] was Active. The concentration for a half-maximal effect (EC50) entry in test [4] (hek293t) is given as “Not Active”. In the test on T98G [9], the result was inactive. In the test with T98G [13], the “cell migration inhibition (active/not active call)” value was “inactive”.
